Data taken from the supplement of paper PMC10307832.

Experiments:
Test in all cases: relative viability (nuclei count vs DMSO), 5 days (fraction); higher = more cells survive
[1] = compound: CCn1c(-c2nonc2N)nc2cnc(Oc3cccc(NC(=O)c4ccc(OCCN5CCOCC5)cc4)c3)cc21 + N=C(N)NC(=N)NCCc1ccccc1 [Phenformin] (partner 250 µM)
How it was run: (§1)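 Values are medians from duplicate plates. Each reflects relative viability, defined as the nuclei count of treated wells over that of vehicle wells. Lung cancer cell lines in 1536-well plates were pin-tool dosed one day after seeding with one drug alone or with a fixed anchor-drug dose plus five library-drug doses (not always all listed) in √10 steps, then fixed, stained and imaged at 4× after 5 days.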

[2] = compound: CCC1=CN=CN=C1N2CCN(CC2)CC3=NC4=C(N3)C=C(C=C4)C(F)(F)F + CC(C)C[C@H](NC(=O)[C@H](Cc1ccccc1)NC(=O)c1cnccn1)B(O)O [Bortezomib] (partner 0.002 µM)
How it was run: as §1

[3] = compound: CCn1c(-c2nonc2N)nc2cnc(Oc3cccc(NC(=O)c4ccc(OCCN5CCOCC5)cc4)c3)cc21 + Nc1ncn([C@H]2C[C@H](O)[C@@H](CO)O2)c(=O)n1 [Decitabine] (partner 2 µM)
How it was run: as §1

[4] = compound: CCC1=CN=CN=C1N2CCN(CC2)CC3=NC4=C(N3)C=C(C=C4)C(F)(F)F + Cc1cc(Nc2cc(N3CCN(C)CC3)nc(Sc3ccc(NC(=O)C4CC4)cc3)n2)n[nH]1 [Tozasertib] (partner 0.1 µM)
How it was run: as §1

| Cell Line | relative viability ([1]; first compound 0.04 µM) | relative viability ([1]; first compound 0.1265 µM) | relative viability ([1]; first compound 0.4 µM) | relative viability ([1]; first compound 1.265 µM) | relative viability ([1]; first compound 4 µM) | relative viability ([2]; first compound 0.04 µM) | relative viability ([2]; first compound 0.1265 µM) | relative viability ([2]; first compound 0.4 µM) | relative viability ([2]; first compound 1.265 µM) | relative viability ([2]; first compound 4 µM) | relative viability ([3]; first compound 0.04 µM) | relative viability ([3]; first compound 0.1265 µM) | relative viability ([3]; first compound 0.4 µM) | relative viability ([3]; first compound 1.265 µM) | relative viability ([3]; first compound 4 µM) | relative viability ([4]; first compound 0.04 µM) | relative viability ([4]; first compound 0.1265 µM) | relative viability ([4]; first compound 0.4 µM) | relative viability ([4]; first compound 1.265 µM) | relative viability ([4]; first compound 4 µM) |
| --- | --- | --- | --- | --- | --- | --- | --- | --- | --- | --- | --- | --- | --- | --- | --- | --- | --- | --- | --- | --- |
| LCLC-103H | 0.421 | 0.286 | 0.182 | 0.216 | 0.222 | 1.04 | 0.959 | 1.07 | 1.07 | 1.18 | 0.647 | 0.686 | 0.704 | 0.664 | 0.723 | 0.536 | 0.504 | 0.488 | 0.463 | 0.398 |
| LOU-NH91 | 0.797 | 0.605 | 0.465 | 0.389 | 0.404 | 0.408 | 0.543 | 0.507 | 0.523 | 0.504 | 0.794 | 0.698 | 0.65 | 0.561 | 0.533 | 0.625 | 0.68 | 0.669 | 0.585 | 0.657 |
| LU99A | 0.614 | 0.706 | 0.623 | 0.683 | 0.505 | 1.23 | 1.07 | 1.05 | 1.07 | 1.24 | 1.03 | 0.994 | 0.929 | 1.02 | 0.844 | 0.268 | 0.281 | 0.282 | 0.278 | 0.297 |
| LXF-289 | 0.554 | 0.526 | 0.361 | 0.334 | 0.341 | 1.07 | 0.953 | 0.971 | 1.04 | 0.917 | 0.359 | 0.403 | 0.353 | 0.384 | 0.318 | 0.168 | 0.175 | 0.206 | 0.16 | 0.192 |
| NCI-H23 | 0.879 | 0.798 | 0.662 | 0.61 | 0.532 | 0.868 | 1.13 | 0.905 | 0.98 | 1.16 | 0.362 | 0.342 | 0.334 | 0.234 | 0.263 | 0.341 | 0.361 | 0.346 | 0.305 | 0.361 |
| NCI-H322M | 1.12 | 0.982 | 0.632 | 0.557 | 0.579 | 1.37 | 1.17 | 1.2 | 1.3 | 1.39 | 0.585 | 0.63 | 0.824 | 0.767 | 0.648 | 0.485 | 0.446 | 0.485 | 0.469 | 0.488 |
| NCI-H441 | 0.89 | 0.96 | – | 0.654 | 0.623 | 0.523 | 0.366 | 0.301 | 0.356 | 0.383 | 0.307 | 0.183 | 0.227 | 0.265 | 0.261 | 0.501 | 0.752 | 0.506 | 0.583 | 0.622 |
| NCI-H460 | 0.664 | 0.432 | 0.295 | 0.0979 | 0.0635 | 1.11 | 1.1 | 0.977 | 1.06 | 0.951 | 0.515 | 0.574 | 0.383 | 0.245 | 0.148 | 0.437 | 0.403 | 0.404 | 0.315 | 0.4 |
| NCI-H520 | 0.887 | 0.631 | 0.404 | 0.306 | 0.288 | 0.699 | 0.48 | 0.642 | 0.534 | 0.472 | 0.611 | 0.524 | 0.468 | 0.347 | 0.37 | 0.423 | 0.432 | 0.403 | – | 0.452 |
| NCI-H596 | 0.898 | 0.77 | 0.598 | 0.531 | 0.661 | 1.03 | 1.11 | 0.846 | 0.946 | 1.15 | 1.01 | 1.04 | 0.969 | 0.926 | 0.932 | 0.921 | 0.949 | 0.758 | – | 1.04 |
| NCI-H647 | 0.455 | 0.399 | 0.357 | 0.339 | 0.272 | 1.3 | 0.938 | – | 0.884 | 0.955 | 0.379 | 0.426 | 0.276 | 0.288 | 0.347 | 0.253 | 0.296 | 0.375 | 0.206 | 0.393 |
| NCI-H650 | 0.485 | 0.381 | 0.258 | 0.246 | 0.292 | 0.68 | 0.797 | 0.672 | 0.841 | 0.959 | 0.288 | 0.318 | 0.301 | 0.237 | 0.32 | 0.78 | 0.76 | 0.765 | 0.616 | 0.753 |
| NCI-H661 | 0.258 | 0.253 | 0.203 | 0.23 | 0.195 | 0.845 | 0.809 | 0.696 | – | 0.782 | 0.498 | 0.559 | 0.406 | 0.448 | 0.33 | 0.371 | 0.348 | 0.362 | 0.322 | 0.366 |
| NCI-H727 | 0.793 | 0.694 | 0.499 | 0.588 | 0.529 | 0.998 | 0.689 | 0.876 | – | 0.744 | – | 1.07 | 0.676 | 0.662 | 0.973 | 0.646 | 0.621 | 0.648 | 0.42 | 0.619 |
| NCI-H838 | 0.501 | 0.285 | 0.201 | 0.227 | 0.222 | 0.945 | 0.747 | 0.782 | 0.597 | 1.03 | 0.422 | 0.393 | 0.303 | 0.331 | 0.271 | 0.278 | 0.253 | 0.306 | 0.24 | 0.268 |
| NCI-H1355 | 0.53 | 0.426 | 0.261 | 0.24 | 0.227 | 1.21 | 1.17 | 1.22 | 1.07 | 1.38 | 0.31 | 0.36 | 0.358 | 0.364 | 0.307 | 0.566 | 0.513 | 0.495 | 0.413 | 0.421 |
| NCI-H1437 | 0.321 | 0.312 | 0.239 | 0.295 | 0.288 | 0.528 | 0.484 | 0.431 | 0.474 | 0.504 | 0.489 | 0.61 | 0.547 | 0.499 | 0.426 | 0.419 | 0.364 | 0.366 | 0.367 | 0.294 |
| NCI-H1650 | 0.47 | 0.382 | 0.229 | 0.397 | 0.369 | 0.18 | 0.222 | 0.199 | 0.211 | 0.19 | 0.504 | 0.282 | 0.348 | 0.604 | 0.478 | 0.482 | 0.471 | 0.273 | – | 0.331 |
| NCI-H1651 | 0.433 | 0.323 | 0.287 | 0.266 | 0.239 | 0.876 | 0.926 | 0.953 | 0.851 | 0.96 | 0.74 | 0.728 | 0.581 | 0.271 | 0.488 | 0.82 | 0.728 | 0.687 | 0.583 | 0.714 |
| NCI-H1666 | 0.597 | 0.603 | 0.582 | 0.211 | 0.259 | 0.799 | 0.714 | 0.896 | 0.811 | 0.779 | 0.796 | 0.787 | 0.751 | 0.653 | 0.704 | 0.556 | 0.723 | 0.575 | 0.569 | 0.635 |
| NCI-H1734 | 0.427 | 0.388 | 0.209 | 0.284 | 0.201 | 0.919 | 0.853 | 0.907 | – | 0.854 | 0.574 | 0.504 | 0.515 | 0.459 | 0.393 | 0.267 | 0.248 | 0.253 | 0.283 | 0.261 |
| NCI-H1755 | 0.565 | 0.508 | 0.301 | 0.304 | 0.332 | 1.02 | 0.882 | 0.953 | 0.816 | 1.06 | 0.732 | 0.72 | 0.729 | 0.719 | 0.654 | 0.627 | 0.503 | 0.596 | 0.515 | 0.521 |
| NCI-H1915 | 0.38 | 0.355 | 0.285 | 0.188 | 0.169 | 1.01 | 0.907 | 0.966 | 0.962 | 1.01 | 0.249 | 0.265 | 0.275 | 0.24 | 0.21 | 0.458 | 0.412 | 0.429 | 0.356 | 0.356 |
| NCI-H1975 | 0.343 | 0.277 | 0.208 | 0.186 | 0.168 | 0.449 | 0.341 | 0.363 | 0.335 | 0.318 | 0.311 | 0.289 | 0.293 | 0.228 | 0.201 | 0.732 | 0.785 | 0.679 | 0.61 | 0.689 |
| NCI-H1993 | 0.66 | 0.562 | 0.546 | 0.565 | 0.508 | 1.16 | 0.952 | 0.927 | 1.25 | 1.01 | 0.557 | 0.616 | 0.652 | 0.496 | 0.531 | 0.627 | 0.509 | 0.597 | 0.566 | 0.493 |
| NCI-H2009 | 0.493 | 0.357 | 0.284 | 0.192 | 0.224 | 1.13 | 0.999 | 1.03 | 0.716 | 0.982 | 0.292 | 0.304 | 0.25 | 0.216 | 0.175 | 0.778 | 0.698 | 0.727 | 0.746 | 0.678 |
| NCI-H2023 | 0.538 | 0.381 | 0.328 | 0.223 | 0.186 | 1.04 | 1.03 | 0.964 | 0.837 | 1.17 | 0.232 | 0.231 | 0.216 | 0.173 | 0.199 | 0.33 | 0.383 | 0.343 | 0.297 | 0.325 |
